The text below walks through data of publication PMC4503722, “Novel Phenotypic Outcomes Identified for a Public Collection of Approved Drugs from a Publicly Accessible Panel of Assays” (PLoS ONE, 2015).

What all share (assay): cells
The subject of one test is DLD-1. Type of test: cell-based.
The next test relates to SNU-C1. Format: cell-based.
For a further test, the system named is INS-1E cells. Format: cell-based, rat.
The next test relates to HT-29. Type of test: cell-based.
Test [1] relates to HCT116 cells treated with a GSK3β inhibitor. Type of test: cell-based.
Test [2] deals with nuclear β-catenin in C2C12 cells. Type of test: cell-based.
Test [3] deals with endothelial tube formation in co-cultures of ECFCs and ADSCs treated with VEGF. Type of test: cell-based, human.
The subject of another test is NCI-H716 cells. Format: cell-based, Human.
A further test relates to Colo320. Format: cell-based.
The subject of the next test is SW480. Format: cell-based.
The test system of another test is HeLa cells. Format: cell-based. As to conditions: Homo sapiens, HeLa, HeLa, read-out: CellCycle G2/M.
Another test has as its system RKO. Type of test: cell-based.
A further test has as its system HCT116. Type of test: cell-based.
Setting [4] is: Homo sapiens, DLD-1, basal, read-out: Basal_Viability ATP DLD-1.
The mark [5] stands for this setting: Homo sapiens, SNU-C1, basal, read-out: Basal_Viability ATP SNU-C1.
Where [6] appears, read: Rattus norvegicus; IC50 / EC50; INS-1E; read-out: Insulin Secretion.
Where [7] appears, read: Homo sapiens, HT-29, read-out: Basal_Viability ATP HT-29.
Where [8] appears, read: Homo sapiens, HCT-116, GSK3b inhibitor pretreated, read-out: GSK3b inh pretreated_Viability ATP HCT116.
[9] abbreviates: Mus musculus, C2C12, IC50 / EC50; C2C12 beta-catenin translocation; read-out: Wnt Pathway.
Where [10] appears, read: Homo sapiens, IC50 / EC50; endothelial tube area, ADSC/ECFC co-culture; read-out: Anti-Angiogenesis.
Setting [11] is: Homo sapiens; IC50 / EC50; NCI-H716; read-out: GLP 1 Secretion.
The mark [12] stands for this setting: Homo sapiens, COLO 320; read-out: Basal_Viability ATP Colo 320.
Where [13] appears, read: Homo sapiens, SW480, basal, read-out: Basal_Viability ATP SW480.
Setting [14] is: Homo sapiens, RKO; read-out: Basal_Viability ATP RKO.
[15] abbreviates: Homo sapiens, HCT-116, basal, read-out: Basal_Viability ATP HCT116.
The mark [16] stands for this setting: Homo sapiens, COLO 320, read-out: Basal_Viability ATP Colo 320.
[17] abbreviates: Homo sapiens, RKO, read-out: Basal_Viability ATP RKO.
Setting [18] is: Homo sapiens, DLD-1, basal, DLD-1, read-out: Basal_Viability ATP DLD-1.
[19] abbreviates: Homo sapiens, SNU-C1, basal, SNU-C1, read-out: Basal_Viability ATP SNU-C1.
Where [20] appears, read: Rattus norvegicus, INS-1E; read-out: Insulin Secretion.
The mark [21] stands for this setting: Homo sapiens; basal; HT-29; read-out: Basal_Viability ATP HT-29.
[22] abbreviates: Homo sapiens, HCT-116, HCT116 pretreated with GSK3b inhibitor, read-out: GSK3b inh pretreated_Viability ATP HCT116.
The mark [23] stands for this setting: Homo sapiens, NCI-H716; read-out: GLP 1 Secretion.
The mark [24] stands for this setting: Homo sapiens, SW480, basal, SW480, read-out: Basal_Viability ATP SW480.
Where [25] appears, read: Homo sapiens, HCT-116, basal, HCT116, read-out: Basal_Viability ATP HCT116.

Read-outs that look alike come from different tables or passages of the source.

`CN(C)CCOC(c1ccccc1)c1ccc(Br)cc1` (stereo not shown) [Bromazine]: the IC50 with DLD-1 (setting [4]) is more than 20 µM; in the test with SNU-C1 (setting [5]) it was 3.1 µM; with HT-29 (setting [7]), 17 µM; in [1] (setting [8]), more than 20 µM; in [3] (setting [10]) it was more than 10 µM; with Colo320 (setting [12]) it was more than 20 µM. For the same molecule, the IC50 with SW480 (setting [13]), in the test on RKO (setting [14]) and in the test with HCT116 (setting [15]) was more than 20 µM throughout. Further, the EC50 with INS-1E cells (setting [6]) is 2.77 µM; in [2] (setting [9]) it was more than 10 µM; with NCI-H716 cells (setting [11]), more than 10 µM; in the test with HeLa cells (IC50 / EC50), more than 10 µM.

Turning to `CC(=O)[O][Hg][c]1ccccc1` [Mercury, (acetato-o)phenyl-], the IC50 is 0.736 µM with DLD-1 (basal, DLD-1, read-out: Basal_Viability ATP DLD-1); 0.192 µM in the test on SNU-C1 (basal, SNU-C1, read-out: Basal_Viability ATP SNU-C1); 0.799 µM in the test on HT-29 (basal; HT-29; read-out: Basal_Viability ATP HT-29); 0.36 µM in test [1] (HCT116 pretreated with GSK3b inhibitor, read-out: GSK3b inh pretreated_Viability ATP HCT116); 0.53 µM in test [3] (read-out: Anti-Angiogenesis); 1.3 µM with Colo320 (basal; Colo 320; read-out: Basal_Viability ATP Colo 320). For the same molecule, the IC50 with SW480 (basal, SW480, read-out: Basal_Viability ATP SW480) turned out to be 0.543 µM; in the test on RKO (basal; RKO; read-out: Basal_Viability ATP RKO), 1.2 µM; in the test with HCT116 (basal, HCT116, read-out: Basal_Viability ATP HCT116) it was 2.8 µM. Moreover, the values for the EC50 (in the test with INS-1E cells (S2 Table; module primary assay; 20 / 20.1 codes per legend; read-out: Insulin Secretion); in [2] (S2 Table; module primary assay; 20 / 20.1 codes per legend; read-out: Wnt Pathway); with NCI-H716 cells (read-out: GLP 1 Secretion)) were more than 10 µM, more than 10 µM and 0.713 µM, respectively.

Regarding `O=C(Nc1ccc(Oc2ccc(Cl)cc2)c(Cl)c1)c1cc(I)cc(I)c1O` [Rafoxanide], the IC50 in the test on DLD-1 (setting [4]) was 0.0084 µM; in the test on SNU-C1 (setting [5]), 0.0143 µM; in the test on HT-29 (Homo sapiens, HT-29; read-out: Basal_Viability ATP HT-29), 0.0095 µM; in test [1] (setting [8]), 0.0667 µM; in test [3] (setting [10]), more than 10 µM; in the test on Colo320 (setting [12]), 0.054 µM. Also, the IC50 is 0.0108 µM in the test with SW480 (setting [13]), 0.0303 µM in the test on RKO (setting [14]) and 0.0169 µM in the test on HCT116 (setting [15]). Further, the EC50 with INS-1E cells (setting [6]) was more than 10 µM; in test [2] (setting [9]) it was more than 10 µM; in the test on NCI-H716 cells (setting [11]) it was 1.3 µM.

Turning to `CN(C)c1ccc(C(=C2C=CC(=[N+](C)C)C=C2)c2ccccc2)cc1` [malachite green], the IC50 with DLD-1 (Homo sapiens, DLD-1, read-out: Basal_Viability ATP DLD-1) worked out at 0.0218 µM; in the test with SNU-C1 (Homo sapiens, SNU-C1, read-out: Basal_Viability ATP SNU-C1) it was 0.0354 µM; with HT-29 (setting [7]) it was 0.00982 µM; in [1] (Homo sapiens, HCT-116, read-out: GSK3b inh pretreated_Viability ATP HCT116) it was 0.00983 µM; in test [3] (Homo sapiens, read-out: Anti-Angiogenesis), 0.0605 µM; in the test with Colo320 (setting [16]) it was 0.161 µM. Also, the IC50 came to 0.00922 µM in the test with SW480 (Homo sapiens, SW480, read-out: Basal_Viability ATP SW480); 0.118 µM in the test with RKO (setting [17]); 0.0179 µM with HCT116 (Homo sapiens, HCT-116, read-out: Basal_Viability ATP HCT116). For the same molecule, the EC50 is more than 10 µM with INS-1E cells (Rattus norvegicus, INS-1E, read-out: Insulin Secretion); 0.363 µM in [2] (Mus musculus, C2C12, read-out: Wnt Pathway); more than 10 µM with NCI-H716 cells (Homo sapiens, NCI-H716, read-out: GLP 1 Secretion).

Consider `COP(=S)(OC)Oc1ccc(Sc2ccc(OP(=S)(OC)OC)cc2)cc1` [temephos], for which the IC50 in the test with DLD-1 (setting [18]) is more than 20 µM; with SNU-C1 (setting [19]), 3.03 µM; in the test on HT-29 (setting [21]) it was more than 20 µM; in test [1] (setting [22]), more than 20 µM; in test [3] (Homo sapiens; read-out: Anti-Angiogenesis), more than 10 µM; with Colo320 (Homo sapiens; basal; Colo 320; read-out: Basal_Viability ATP Colo 320), more than 20 µM. Moreover, the results for the IC50 in the test on SW480 (setting [24]), in the test with RKO (setting [17]) and in the test on HCT116 (setting [25]) were 0.0118 µM, 12.1 µM and more than 20 µM, respectively. The EC50 is more than 10 µM with INS-1E cells (setting [20]); more than 10 µM in test [2] (Mus musculus, C2C12, S2 Table; module primary assay; 20 / 20.1 codes per legend; read-out: Wnt Pathway); more than 10 µM in the test on NCI-H716 cells (setting [23]).

For the molecule `CC[C@@]1(O)C(=O)OCc2c1cc1n(c2=O)Cc2cc3c(CN(C)C)c(O)ccc3nc2-1` [topotecan], the IC50 with DLD-1 (setting [18]) worked out at 0.177 µM; in the test on SNU-C1 (setting [19]), 0.301 µM; in the test on HT-29 (setting [21]), 0.0246 µM; in [1] (setting [22]), 0.00144 µM; in the test on Colo320 (setting [16]), 9.42 µM; in the test on SW480 (setting [24]), 0.233 µM. Also, the values for the IC50 with RKO (Homo sapiens; basal; RKO; read-out: Basal_Viability ATP RKO) and in the test on HCT116 (setting [25]) were 0.0342 µM and 0.0341 µM, respectively. The EC50 with INS-1E cells (setting [20]) is more than 10 µM; in [2] (Mus musculus, C2C12; read-out: Wnt Pathway), 0.0179 µM; with NCI-H716 cells (setting [23]) it was more than 10 µM; in the test with HeLa cells (S2 Table, 20 = no response at highest concentration), more than 10 µM.
